± gives the expanded uncertainty stated by the source.
Settings: 283.15 K, Liquid, Vibrating tube method

CCCC(=O)OCC(COC(=O)CCC)(COC(=O)CCC)COC(=O)CCC [pentaerythritol tetrabutyrate]
Settings	mass density [kg/m3]
5069.8 kPa	1062.1 ± 1.3
5785 kPa	1062.4 ± 1.3
5790.3 kPa	1062.5 ± 1.3
5796.4 kPa	1062.5 ± 1.3
6791.4 kPa	1063 ± 1.3
7204.6 kPa	1063.2 ± 1.3
7259.3 kPa	1063.3 ± 1.3
7320.1 kPa	1063.4 ± 1.3
7411.4 kPa	1063.4 ± 1.3
7437.1 kPa	1063.4 ± 1.3
7462.9 kPa	1063.3 ± 1.3
7545.9 kPa	1063.4 ± 1.3
7572.6 kPa	1063.5 ± 1.3
7606 kPa	1063.5 ± 1.3
7632.9 kPa	1063.5 ± 1.3
7657.7 kPa	1063.5 ± 1.3
7681.7 kPa	1063.5 ± 1.3
7710.4 kPa	1063.4 ± 1.3
7734.6 kPa	1063.6 ± 1.3
8293.1 kPa	1063.8 ± 1.3
11358 kPa	1065.7 ± 1.3
11377 kPa	1065.7 ± 1.3
11399 kPa	1065.7 ± 1.3
11419 kPa	1065.6 ± 1.3
11438 kPa	1065.6 ± 1.3
11456 kPa	1065.7 ± 1.3
11667 kPa	1065.7 ± 1.3
11687 kPa	1066 ± 1.3
11708 kPa	1065.9 ± 1.3
11731 kPa	1065.8 ± 1.3
11751 kPa	1065.9 ± 1.3
11775 kPa	1066 ± 1.3
11795 kPa	1066 ± 1.3
11816 kPa	1065.9 ± 1.3
11836 kPa	1065.9 ± 1.3
11862 kPa	1065.9 ± 1.3
11882 kPa	1065.9 ± 1.3
11903 kPa	1065.9 ± 1.3
11928 kPa	1066 ± 1.3
11949 kPa	1066 ± 1.3
11995 kPa	1065.9 ± 1.3
12016 kPa	1066 ± 1.3
13152 kPa	1066.7 ± 1.3
13178 kPa	1066.7 ± 1.3
13234 kPa	1066.6 ± 1.3
13898 kPa	1067.1 ± 1.3
15509 kPa	1068 ± 1.3
15590 kPa	1068 ± 1.3
15620 kPa	1068.1 ± 1.3
15664 kPa	1068.1 ± 1.3
15701 kPa	1068 ± 1.3
15739 kPa	1068 ± 1.3
15784 kPa	1068.2 ± 1.3
15822 kPa	1068.1 ± 1.3
15860 kPa	1068.2 ± 1.3
15906 kPa	1068.2 ± 1.3
17727 kPa	1069.2 ± 1.3
17738 kPa	1069.3 ± 1.3
17748 kPa	1069.2 ± 1.3
17759 kPa	1069.3 ± 1.3
17769 kPa	1069.2 ± 1.3
17778 kPa	1069.1 ± 1.3
18091 kPa	1069.4 ± 1.3
18103 kPa	1069.5 ± 1.3
18112 kPa	1069.4 ± 1.3
18122 kPa	1069.4 ± 1.3
18135 kPa	1069.5 ± 1.3
18145 kPa	1069.4 ± 1.3
18166 kPa	1069.5 ± 1.3
18176 kPa	1069.4 ± 1.3
18264 kPa	1069.5 ± 1.3
18274 kPa	1069.6 ± 1.3
18296 kPa	1069.4 ± 1.3
18306 kPa	1069.5 ± 1.3
18318 kPa	1069.6 ± 1.3
18328 kPa	1069.5 ± 1.3
18338 kPa	1069.5 ± 1.3
18351 kPa	1069.5 ± 1.3
18864 kPa	1069.8 ± 1.3
18899 kPa	1069.8 ± 1.3
18956 kPa	1069.9 ± 1.3
18967 kPa	1069.8 ± 1.3
18980 kPa	1069.6 ± 1.3
18991 kPa	1069.8 ± 1.3
19143 kPa	1069.9 ± 1.3
19349 kPa	1070.2 ± 1.3
19360 kPa	1070.1 ± 1.3
19371 kPa	1070.1 ± 1.3
19383 kPa	1070 ± 1.3
19397 kPa	1070.1 ± 1.3
19419 kPa	1070.1 ± 1.3
19433 kPa	1070.3 ± 1.3
19458 kPa	1070.2 ± 1.3
19470 kPa	1070.1 ± 1.3
20345 kPa	1070.6 ± 1.3
20358 kPa	1070.6 ± 1.3
20371 kPa	1070.7 ± 1.3
20383 kPa	1070.7 ± 1.3
20398 kPa	1070.7 ± 1.3
20411 kPa	1070.7 ± 1.3
20426 kPa	1070.8 ± 1.3
20439 kPa	1070.8 ± 1.3
20452 kPa	1070.6 ± 1.3
20631 kPa	1070.8 ± 1.3
20647 kPa	1070.9 ± 1.3
20659 kPa	1070.9 ± 1.3
20673 kPa	1070.8 ± 1.3
20689 kPa	1070.8 ± 1.3
20702 kPa	1070.8 ± 1.3
20718 kPa	1070.8 ± 1.3
20731 kPa	1070.8 ± 1.3
20744 kPa	1070.9 ± 1.3
20757 kPa	1070.9 ± 1.3
20943 kPa	1071 ± 1.3
20960 kPa	1071 ± 1.3
20973 kPa	1071 ± 1.3
20987 kPa	1071 ± 1.3
21354 kPa	1071.2 ± 1.3
21371 kPa	1071.2 ± 1.3
21386 kPa	1071.4 ± 1.3
21583 kPa	1071.3 ± 1.3
21614 kPa	1071.3 ± 1.3
21629 kPa	1071.5 ± 1.3
21646 kPa	1071.3 ± 1.3
21661 kPa	1071.2 ± 1.3
21676 kPa	1071.4 ± 1.3
21691 kPa	1071.4 ± 1.3
21708 kPa	1071.3 ± 1.3
21738 kPa	1071.4 ± 1.3
21756 kPa	1071.4 ± 1.3
21770 kPa	1071.4 ± 1.3
21833 kPa	1071.5 ± 1.3
21848 kPa	1071.5 ± 1.3
21866 kPa	1071.5 ± 1.3
21881 kPa	1071.5 ± 1.3
21895 kPa	1071.5 ± 1.3
21910 kPa	1071.5 ± 1.3
21928 kPa	1071.5 ± 1.3
21943 kPa	1071.7 ± 1.3
21958 kPa	1071.6 ± 1.3
21976 kPa	1071.6 ± 1.3
21991 kPa	1071.5 ± 1.3
22008 kPa	1071.6 ± 1.3
22350 kPa	1071.7 ± 1.3
22366 kPa	1071.8 ± 1.3
22381 kPa	1071.6 ± 1.3

Reference: the NIST ThermoML archive (doi:10.1021/je060271a)
